Tested on: PCSK9
Assay: PCSK9 secretion assay in HepG2 cells (PCSK9 ELISA)
Assay type: cell-based
Conditions: HepG2 cells, 16 hours incubation, at least 6 concentrations
Procedure: HepG2 cells (from ATCC, Catalog no. HB-8065) were maintained in DMEM (Invitrogen) supplemented with 10% fetal bovine serum (Invitrogen). The day prior to the PCSK9 assay, cells are seeded in 96-well collagen coated plates at 25,000 cells/well.
The compounds of the invention were stored at −20° C. until used. The test article compound was dissolved in 100% ethanol to a 50 mM stock solution. This was then diluted in FBS to a final concentration of 1 mM. This solution was placed in a sonicating water bath for 30 minutes. Subsequent dilutions were then made in FBS supplemented with an equivalent volume of ethanol and mixed by vortexing.
HepG2 cells were seeded onto a collagen coated 96-well plate (Becton Dickinson, Catalog no. 35-4407) the day prior to the assay, as described above. The next day, the cell medium was removed, washed once with 100 μL serum free DMEM to remove any residual PCSK9, and replaced with 90 μL of serum free DMEM. Ten microliters of each compound concentration prepared in FBS was then added. Each concentration of compound was tested in triplicate. The compound was incubated with the cells overnight for 16 hours. Following this incubation, 10 μL of AlamarBlue was added to each well and cells incubated for another 2 hours. The plates were then removed and AlamarBlue fluorescence was measured (excitation, 550 nm and […]) to assess cell viability. Cell culture supernatant was then diluted […] 1×RDSP Calibrator Diluent and PCSK9 ELISA was then performed with 50 μL of this diluted sample, as per the manufacturer's instructions. The ELISA was measured on a Victor X5 multilabel plate reader (PerkinElmer) at an absorbance of 450 nm with background correction measured at 550 nm (The PCSK9 Elisa kits can be purchased from R&D System, Catalog no. DPC900).
Alternatively, an IC50 could also be obtained when this type of assay was carried out using at least 6 different concentrations of the test compounds. Table 1 lists the IC50 values for the compounds tested in this assay.

IC50 [µM] | SMILES
< 25 | CC/C=C\C/C=C\C/C=C\C/C=C\C/C=C\CCCC(=O)NCCNC(=O)C(C)(C)Oc1ccc(Cl)cc1 [II-33, (5Z,8Z,11Z,14Z,17Z)—N-(2-(2-(4-chlorophenoxy)-2-methylpropanamido)ethyl)icosa-5,8,11,14,17-pentaenamide]
< 25 | CC/C=C\C/C=C\C/C=C\C/C=C\C/C=C\C/C=C\CCC(=O)NCCNC(=O)C(C)(C)CCCOc1cc(C)ccc1C [II-34, (4Z,7Z,10Z,13 Z,16Z,19Z)—N-(2-(5-(2,5-dimethylphenoxy)-2,2-dimethylpentanamido)ethyl)docosa-4,7,10,13,16,19-hexaenamide]
< 25 | CC/C=C\C/C=C\C/C=C\C/C=C\C/C=C\C/C=C\CCC(=O)NCCNC(=O)C(C)(C)Oc1ccc(C(=O)c2ccc(Cl)cc2)cc1 [II-36, (4Z,7Z,10Z,13Z,16Z,19Z)—N-(2-(2-(4-(4-chlorobenzoyl)phenoxy)-2-methylpropanamido)ethyl)docosa-4,7,10,13,16,19-hexaenamide]
< 25 | CC/C=C\C/C=C\C/C=C\C/C=C\C/C=C\CCCC(=O)NCCNC(=O)C(C)(C)Oc1ccc(CCNC(=O)c2ccc(Cl)cc2)cc1 [II-39, 4-chloro-N-(4-((1-((2-((5Z,8Z,11Z,14Z,17Z)-icosa-5,8,11,14,17-pentaenamido)ethyl)amino)-2-methyl-1-oxopropan-2-yl)oxy)phenethyl)benzamide]
> 50 | CC/C=C\C/C=C\C/C=C\C/C=C\C/C=C\C/C=C\CCC(=O)NCCOCCOCCOC [III-1, (4Z,7Z,10Z,13Z,16Z,19Z)—N-(2-(2-(2-methoxyethoxy)ethoxy)ethyl)docosa-4,7,10,13,16,19-hexaenamide]
< 25 | CC/C=C\C/C=C\C/C=C\C/C=C\C/C=C\C/C=C\CCC(=O)NCCOCCOCCOCCOC [III-3, (4Z,7Z,10Z,13Z,16Z,19Z)—N-(2,5,8,11-tetraoxamidecan-13-yl)docosa-4,7,10,13,16,19-hexaenamide]
25 to 50 | CC/C=C\C/C=C\C/C=C\C/C=C\C/C=C\CCCC(=O)NCCNC(=O)c1cncc(-c2ccccc2)c1 [VI-2, N-(2-((5Z,8Z,11Z,14Z,17Z)-icosa-5,8,11,14,17-pentaenamido)ethyl)-5-phenylnicotinamide]
> 50 | CC/C=C\C/C=C\C/C=C\C/C=C\C/C=C\CCCC(=O)NCCNC(=O)c1cccnc1-c1ccccc1 [VI-4, N-(2-((5Z,8Z,11Z,14Z,17Z)-icosa-5,8,11,14,17-pentaenamido)ethyl)-2-phenylnicotinamide]
< 25 | CC/C=C\C/C=C\C/C=C\C/C=C\C/C=C\CCCC(=O)N1CCC(NC(=O)C2=CC(=O)C(C)(c3ccccc3)O2)CC1 (stereo not shown) [VII-1, N-(1-((5Z,8Z,11Z,14Z,17Z)-icosa-5,8,11,14,17-pentaenoyl)piperidin-4-yl)-5-methyl-4-oxo-5-phenyl-4,5-dihydrofuran-2-carboxamide]
< 25 | CC/C=C\C/C=C\C/C=C\C/C=C\C/C=C\CCCC(=O)N1CCC(CNC(=O)C2=CC(=O)C(C)(c3ccccc3)O2)CC1 (stereo not shown) [VII-2, N-((1-((5Z,8Z,11Z,14Z,17Z)-icosa-5,8,11,14,17-pentaenoyl)piperidin-4-yl)methyl)-5-methyl-4-oxo-5-phenyl-4,5-dihydrofuran-2-carboxamide]
< 25 | CC/C=C\C/C=C\C/C=C\C/C=C\C/C=C\CCCC(=O)N1CC[C@@H](NC(=O)C2=CC(=O)C(C)(c3ccccc3)O2)C1 (stereo partly drawn) [VII-3, N—((R)-1-((5Z,8Z,11Z,14Z,17Z)-icosa-5,8,11,14,17-pentaenoyl)pyrrolidin-3-yl)-5-methyl-4-oxo-5-phenyl-4,5-dihydrofuran-2-carboxamide]
< 25 | CC/C=C\C/C=C\C/C=C\C/C=C\C/C=C\CCCC(=O)N1CC[C@H](NC(=O)C2=CC(=O)C(C)(c3ccccc3)O2)C1 (stereo partly drawn) [VII-4, N—((S)-1-((5Z,8Z,11Z,14Z,17Z)-icosa-5,8,11,14,17-pentaenoyl)pyrrolidin-3-yl)-5-methyl-4-oxo-5-phenyl-4,5-dihydrofuran-2-carboxamide]
< 25 | CC/C=C\C/C=C\C/C=C\C/C=C\C/C=C\CCCC(=O)N1CC[C@H](CNC(=O)C2=CC(=O)C(C)(c3ccccc3)O2)C1 (stereo partly drawn) [VII-5, N—(((R)-1-((5Z,8Z,11Z,14Z,17Z)-icosa-5,8,11,14,17-pentaenoyl)pyrrolidin-3-yl)methyl)-5-methyl-4-oxo-5-phenyl-4,5-dihydrofuran-2-carboxamide]
< 25 | CC/C=C\C/C=C\C/C=C\C/C=C\C/C=C\CCCC(=O)N1CC[C@@H](CNC(=O)C2=CC(=O)C(C)(c3ccccc3)O2)C1 (stereo partly drawn) [VII-6, N—(((S)-1-((5Z,8Z,11Z,14Z,17Z)-icosa-5,8,11,14,17-pentaenoyl)pyrrolidin-3-yl)methyl)-5-methyl-4-oxo-5-phenyl-4,5-dihydrofuran-2-carboxamide]

SMILES | IC50 [µM]
CC/C=C\C/C=C\C/C=C\C/C=C\C/C=C\CCCC(=O)NCCNC(=O)c1ccc(=O)n(C)c1 [II-7, N-(2-((5Z,8Z,11Z,14Z,17Z)-icosa-5,8,11,14,17-pentaenamido)ethyl)-1-methyl-6-oxo-1,6-dihydropyridine-3-carboxamide] | > 50
CC/C=C\C/C=C\C/C=C\C/C=C\C/C=C\CCCC(=O)NCCNC(=O)c1ccncc1 [II-8, N-(2-((5Z,8Z,11Z,14Z,17Z)-icosa-5,8,11,14,17-pentaenamido)ethyl)isonicotinamide] | > 50
CC/C=C\C/C=C\C/C=C\C/C=C\C/C=C\CCCC(=O)NCCNC(=O)c1ccccn1 [II-9, N-(2-((5Z,8Z,11Z,14Z,17Z)-icosa-5,8,11,14,17-pentaenamido)ethyl)picolinamide] | 25 to 50
CC/C=C\C/C=C\C/C=C\C/C=C\C/C=C\CCCC(=O)NCCNC(=O)c1ccncn1 [II-10, N-(2-((5Z,8Z,11Z,14Z,17Z)-icosa-5,8,11,14,17-pentaenamido)ethyl)pyrimidine-4-carboxamide] | > 50
CC/C=C\C/C=C\C/C=C\C/C=C\C/C=C\CCCC(=O)NCCNC(=O)c1cnccn1 [II-11, N-(2-((5Z,8Z,11Z,14Z,17Z)-icosa-5,8,11,14,17-pentaenamido)ethyl)pyrazine-2-carboxamide] | > 50
CC/C=C\C/C=C\C/C=C\C/C=C\C/C=C\CCCC(=O)NCCOCCOCCOC [III-2, (5Z,8Z,11Z,14Z,17Z)—N-(2-(2-(2-methoxyethoxy)ethoxy)ethyl)icosa-5,8,11,14,17-pentaenamide] | > 50
CC/C=C\C/C=C\C/C=C\C/C=C\C/C=C\CCCC(=O)NCCNC(=O)c1cnccc1O [VI-1, 4-hydroxy-N-(2-((5Z,8Z,11Z,14Z,17Z)-icosa-5,8,11,14,17-pentaenamido)ethyl)nicotinamide] | > 50
CC/C=C\C/C=C\C/C=C\C/C=C\C/C=C\CCCC(=O)NCCNC(=O)c1cccnc1O [VI-3, 2-hydroxy-N-(2-((5Z,8Z,11Z,14Z,17Z)-icosa-5,8,11,14,17-pentaenamido)ethyl)nicotinamide] | > 50
CC/C=C\C/C=C\C/C=C\C/C=C\C/C=C\CCCC(=O)NCCNC(=O)c1cncc(O)c1 [VI-5, 5-hydroxy-N-(2-((5Z,8Z,11Z,14Z,17Z)-icosa-5,8,11,14,17-pentaenamido)ethyl)nicotinamide] | 25 to 50
CC/C=C\C/C=C\C/C=C\C/C=C\C/C=C\CCCC(=O)NCCNC(=O)c1cccnc1C [VI-6, N-(2-((5Z,8Z,11Z,14Z,17Z)-icosa-5,8,11,14,17-pentaenamido)ethyl)-2-methylnicotinamide] | 25 to 50
CC/C=C\C/C=C\C/C=C\C/C=C\C/C=C\CCCC(=O)NCCNC(=O)c1cccnc1F [VI-7, 2-fluoro-N-(2-((5Z,8Z,11Z,14Z,17Z)-icosa-5,8,11,14,17-pentaenamido)ethyl)nicotinamide] | < 25

— US20140093513A1, “METHODS OF LOWERING PROPROTEIN CONVERSATE SUBTILISIN/KEXIN TYPE 9 (PCSK9)” (Catabasis Pharmaceuticals, Inc., priority 2012, published 2014)
